Reference: patent publication US20090111836A1, “Angular Pyranocoumarins, Process for Preparation and Uses Thereof” (CITY UNIVERSITY OF HONG KONG, priority 2007, published 2009)

What was measured:
[1] = molecular target: T1, P-gp (Homo sapiens, UniProt P08183); assay: Rhodamine-123 efflux assay, K562-DR; type: cell-based; design: K562-DR cell expressed P-gp at high level when compared with parental drug sensitive cells thereof; endogenous in cells; settings: 10 μM, 1 hour efflux
Experimental: (§1) (Fs: cellular fluorescence intensity of Rb-123 in the presence of testing drugs; Fo: cellular fluorescence intensity of Rh-123 in the absence of any P-gp modulator).
(§2) 1.4 Test for Rh-123 transport: HepG2-DR cells or K562-DR cells (1×10^6 cells in 1 mL complete growth medium) were incubated with 5 μg/mL, Rh-123 at 37° C. for 1 hour to allow Rh-123 uptake. […] Cellular fluorescence of Rh-123 was determined by flow cytometry to analyze the inhibitive effect of test compounds on drug expulsion from cells.

[2] = molecular target: T1, P-gp; assay: Rhodamine-123 efflux assay, HepG2-DR; type: cell-based; design: KB V1, HepG2-DR and K562-DR cell expressed P-gp at high level when compared with parental drug sensitive cells thereof; endogenous in cells; host or cells: HepG2-DR (doxorubicin-maintained multidrug resistant subline of HepG2); settings: 10 μM, 1 hour efflux
Experimental: as §1, §2

T1 sequence (P08183 whole entry): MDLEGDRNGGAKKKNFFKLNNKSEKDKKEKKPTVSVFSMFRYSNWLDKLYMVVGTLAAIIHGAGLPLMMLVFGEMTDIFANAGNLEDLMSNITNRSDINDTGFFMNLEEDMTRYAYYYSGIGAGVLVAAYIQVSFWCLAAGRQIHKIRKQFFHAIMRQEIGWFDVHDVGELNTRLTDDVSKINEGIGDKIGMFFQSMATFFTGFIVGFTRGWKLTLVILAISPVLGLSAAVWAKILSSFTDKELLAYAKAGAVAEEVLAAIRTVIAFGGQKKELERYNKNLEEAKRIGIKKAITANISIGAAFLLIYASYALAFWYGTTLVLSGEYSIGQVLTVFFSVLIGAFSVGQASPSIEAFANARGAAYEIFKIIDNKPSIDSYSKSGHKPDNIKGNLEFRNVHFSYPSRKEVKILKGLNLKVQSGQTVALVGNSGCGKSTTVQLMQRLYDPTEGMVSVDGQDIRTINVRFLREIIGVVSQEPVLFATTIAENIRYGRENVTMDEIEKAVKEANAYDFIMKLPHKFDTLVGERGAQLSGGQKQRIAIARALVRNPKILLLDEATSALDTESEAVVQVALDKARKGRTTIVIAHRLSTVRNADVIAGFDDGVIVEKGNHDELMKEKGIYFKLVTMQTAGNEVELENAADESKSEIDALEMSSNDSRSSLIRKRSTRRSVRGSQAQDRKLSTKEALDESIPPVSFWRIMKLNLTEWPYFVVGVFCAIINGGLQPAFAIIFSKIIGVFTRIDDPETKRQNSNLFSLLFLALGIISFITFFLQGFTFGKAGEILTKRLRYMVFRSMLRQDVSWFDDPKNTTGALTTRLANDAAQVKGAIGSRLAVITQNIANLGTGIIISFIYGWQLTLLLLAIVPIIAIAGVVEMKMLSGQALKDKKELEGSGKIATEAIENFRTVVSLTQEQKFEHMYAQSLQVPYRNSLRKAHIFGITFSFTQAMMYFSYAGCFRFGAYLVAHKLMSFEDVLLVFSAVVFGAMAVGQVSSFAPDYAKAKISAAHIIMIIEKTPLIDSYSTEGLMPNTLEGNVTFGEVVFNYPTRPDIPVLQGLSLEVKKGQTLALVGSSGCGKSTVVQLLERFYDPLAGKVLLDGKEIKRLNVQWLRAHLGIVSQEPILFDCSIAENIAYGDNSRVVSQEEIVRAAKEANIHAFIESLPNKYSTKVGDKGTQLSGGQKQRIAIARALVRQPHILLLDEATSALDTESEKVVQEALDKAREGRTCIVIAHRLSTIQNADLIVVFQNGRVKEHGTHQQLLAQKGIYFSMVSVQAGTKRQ

COc1ccc(/C=C/C(=O)O[C@@H]2c3c(ccc4ccc(=O)oc34)OC(C)(C)[C@@H]2OC(=O)/C=C/c2ccc(OC)c(OC)c2)cc1OC (racemic) [cis-DMDCK, (±)-3′-O,4′-O-bis(3,4-dimethoxycinnamoyl)-cis-khellactone]
Increase in cellular Rh-123 fluorescence compared with untreated cells [1]: 200%
Increase in cellular Rh-123 fluorescence compared with untreated cells [2]: 480%

COc1ccc(C(=O)O[C@@H]2c3c(ccc4ccc(=O)oc34)OC(C)(C)[C@@H]2OC(=O)c2ccc(OC)c(OC)c2)cc1OC (racemic) [cis-DMDBK, (±)-3′-O,4′-O-bis(3,4-dimethoxybenzoyl)-cis-khellactone]
Increase in cellular Rh-123 fluorescence compared with untreated cells [1]: 140%
Increase in cellular Rh-123 fluorescence compared with untreated cells [2]: 400%
